Measurements published in US8394397B2, “Adhesive antineoplastic compositions” (Ed. Geistlich Soehne AG fuer Chemische Industrie, priority 2003, dated 2013).

What was measured:
[1] = system: glial tumor cell lines LN18, LN229, U87MG, and ex vivo cells from a freshly isolated glioblastoma; test: Crystal violet assay of tumor cells incubated with taurolidine released from the matrices; assay type: cell-based
Description: To determine whether the antineoplastic activity of taurolidine was affected by embedding in the matrix, the glial tumor cell lines LN18, LN229, U87MG, and ex vivo cells from a freshly isolated glioblastoma were incubated with taurolidine released from the matrices at different periods.
The LN18, LN229, and U87MG tumor cells and ex vivo cells from a glioblastoma were seeded in […] plastic cell culture flasks until a cell confluency of 80% was reached. The resulting cell suspensions were centrifuged at 1200 rpm for 5 min and then diluted to yield cell suspensions containing 5×10^4 cells per ml. Aliquots of 200 μl of the cell suspensions were pipetted into the wells of a 96-multiwell plate.
After 12 hours when the cells were adherent the medium was removed and replaced by fresh medium. The cells were incubated for 24 hours and the taurolidine solution released at different time intervals from the matrices loaded with different taurolidine concentrations. Tumor cells incubated with the same volume of supernatant from fibrin sealant matrix without taurolidine were used as negative controls. Identically treated cells to which Fas-ligand at a concentration of 25% was added served as positive controls.
After incubation for 24 hours, the supernatants were removed and 100 μl of crystal violet staining solution (0.5% crystal violet in 19.5% methanol and 80% distilled water) added. The solution was removed after 10 min and residual dye rinsed off with tap water. The plates were then left to air-dry for 12 hours followed by counting in a microplate counter at 540 nm.

[2] = cited from earlier work
[3] = Long-term release kinetics of taurolidine from fibrin sealant matrix over 14 days; assay type: physicochemical; settings: for percentage of taurolidine released from the matrix: irrespective of loading concentrations
Description: The long-term release kinetics of taurolidine was investigated by homogenously suspending different concentrations of taurolidine in the two components of the fibrin sealant in such a way that final concentrations (mg/ml) of 10, 40 and 80 mg/ml were achieved per 400 μl of fresh PBS at 24-hour intervals over a period of 14 days. The supernatants from the wells containing identical taurolidine concentrations were pooled. The taurolidine concentrations in the supernatants were determined.

[4] = Taurolidine release from fibrin sealant matrix into PBS supernatant over 7 days; assay type: physicochemical; settings: irrespective of initial taurolidine concentration, 37° C.
Description: Different concentrations of taurolidine were homogenously suspended in the two components of the fibrin sealant. The two components were then mixed in wells of a 24-multiwell plate to prepare matrixes with identical total volumes of 400 μl per well containing final taurolidine concentrations of 10, 20, 40 and 80 mg/ml. The resulting thickness of the matrix was 2 mm ±0.4 mm. In addition, matrices with volumes of 400 μl and 800 μl containing 10 mg/ml or 40 mg/ml of taurolidine were prepared to investigate the effect of matrix size on taurolidine release. […] Matrices of identical volume and thickness without taurolidine served as controls. Supernatants of 400 μl phosphate-buffered saline (PBS) were added to each well after solidification. The multiwell plates were incubated at 37° C. The supernatants were pipetted off at 24-hour intervals over a period of 7 days and replaced by identical amounts of fresh PBS.

SMILES: O=S1(=O)CCN(CN2CCS(=O)(=O)NC2)CN1 [Taurolidine, Bis-(1,1-dioxoperhydro-1,2,4-thiadiazinyl-4)methane]
- proliferation of tumor cell lines and ex vivo glioblastoma cells ([1]; taurolidine released from matrices, 24 hours incubation): inhibited in an concentration-dependent manner
- reduction of cell counts ([1]; taurolidine released on day 3, loading concentration 100 mg/ml): at least 60%
- effect on tumor cell proliferation ([1]; taurolidine released on day 13 from TFM, initial loading concentration 10 mg/ml): no further effects on tumor cell proliferation
- water soluble up to [2]: up to 2%
- percentage of taurolidine released from the matrix ([3]; after 10 days): 98.93%±0.33
- percentage of taurolidine released from the matrix ([3]; after 14 days): 99.99%±0.02
- period over which antineoplastically effective amounts of taurolidine were released ([3]; loading concentrations of 25 mg/ml or above): 14 days
- taurolidine released on day 14 ([3]; loading concentrations of 50 mg/ml or higher, day 14): over 100 μg/ml
- percentage of total taurolidine released from the matrix ([4]; within 6 days): 75.2±6.64%
- percentage of total taurolidine released from the matrix ([4]; within the first 2 days): 54.7±1.44%
